# Patent publication US20260021186A1, “Fatty Acid-D-Amino Acid Peptides Conjugates as Anaplerotic Compounds for Use in Treating Propionic Acidemia, Methylmalonic Acidurias, and Energy Metabolic Disorders” (University of Pittsburgh - Of the Commonwealth System of …, priority 2022, published 2026)
# What was measured:
# [1] = test system: PA patient cells, Fb859; experiment: Measurement of mitochondrial respiration (Seahorse XF MitoStress test, OCR); assay type: cell-based, human; details: FIGS. 12A-12D; 30 μM and 90 μM for 72 h
# Experimental: Measurement of Mitochondrial Respiration Seahorse: Fb859 cells were grown in regular DMEM media until 85-90% confluency. The cells were harvested and seeded at a concentration of 25,000 cells/80 μl (n=8 replicates) in poly-D lysine coated XFe seahorse 96well plate in regular DMEM media and incubated overnight at 37° C. in a 5% CO2 incubator. Following day, the culture media was replaced in designated wells with the following for 72 h:180 μl of Specialty Media A (seahorse XFDMEM base media+10% fat stripped FBS+Glucose+sodium pyruvate+L-glutamine+0.5 mM carnitine). 180 μl of Specialty Media B (scahorse XFDMEM base media+10% stripped FBS+0.5 mM carnitine and no added glucose, sodium pyruvate or glutamine). 180 μl of Specialty media B containing experimental compounds. After 72 h incubation the Specialty media A & B was replaced in respective designated wells with 180 μL Seahorse XF DMEM base media containing glucose, sodium pyruvate. […] OCR was determined (Seahorse XF MitoStress test). Finally, cells were lysed, and protein content was determined. […]
# Measurement of Mitochondrial Respiration: Control Fb826 and Patient Fb859 cells were grown in regular DMEM media without adding extra glutamine until 85-90% confluency. […] Oxygen consumption rate (OCR) was determined (Seahorse XF MitoStress test). Finally, cells were lysed, and protein content was determined. […]
# [2] = test system: HEK293 PCCA−/− cells; experiment: Propionyl-CoA alternative metabolites excreted in culture media (mass spectrometry); assay type: cell-based, human; details: 72 hours; relative to untreated cells
# Experimental: FIGS. 14A-14D are graphs showing the quantitation of propionyl-CoA alternative metabolites excreted in the media of FB859 patient and HEK293 PCCA^−/− cultured cells treated with PMA007 or PMA010 for 72 hours: propionylcarnitine (C3-carnitine; FIG. 14A), propionylglycine (C3-glycine; FIG. 14B), hydroxypropionylcarnitine (C3OH-carnitine; FIG. 14C), and hydroxypropionyl glycine (C3OH-glycine, FIG. 14D). Data are presented as percentage to untreated cells. In media of Fb859 cells, the control (Cntl, 0 μM) treatment with glucose and pyruvate, media propionylcarnitine was 0.17 μM, while in the untreated control, which had no glucose or pyruvate, and stripped FBS (no fat) included in the media, propionylcarnitine was 0.433 μM.
# Acylcarnitine levels determination: Media from control, Fb826, and treated and untreated patient, Fb859, cells were collected from either the immunohistochemistry cultures or the Seahorse oxygen consumption 96-well plate assays and analyzed for the levels of short chain acylcarnitines plus propionylglycine and hydroxypropionylglycine using a triple quadrupole API4000 mass spectrometer (AB Sciex™, Framingham, MA) equipped with a ExionLC™ 100 HPLC system (Shimadzu Scientific Instruments™, Columbia, MD) as outlined as previously published.
smiles,measurement,setting,value
"C[C@@H](NC(=O)CCCCC(=O)O)C(=O)N[C@H](Cc1c[nH]cn1)C(=O)O [PMA010, 6-(((R)-1-(((R)-1-carboxy-2-(1H-imidazol-4-yl)ethyl)amino)-1-oxopropan-2-yl)amino)-6-oxohexanoic acid]",oxygen consumption parameters compared to individual components D-Serine and D-Histidine,[1],improved
same,reduction in hydroxypropionyl glycine in media,[2],80%
same,reduction in propionylcarnitine in media,[2],59%
same,reduction in propionylglycine in media,[2],41%
